Results as given in US12053470B2, “Pharmaceutical combination comprising an ALK inhibitor and a SHP2 inhibitor” (Novartis AG, priority 2017, dated 2024).

Test system: Ceritinib resistant MGH049 cells
Experiment: Cell colony formation assay with ceritinib resistant MGH049 cells;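 further: tested compounds are SHP2 inhibitors given alone, colonies fixed and crystal violet stained, DMSO reference taken as the mean of six readings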
Format: cell-based, human
Conditions: Homo sapiens, 168 h; compound of Table 1 (3 μM) alone, 7 days; normalized to DMSO without compound = 100; read-out: Normalized Crystal Violet abs. (590 nm) DMSO

| Structure (SMILES) | activity at 3 µM |
| --- | --- |
| Nc1nc(N2CCC3(CC2)COC[C@H]3N)cnc1Sc1cccc(NC(=O)c2c(O)nc3n(c2=O)CCCC3)c1Cl [compound 53, (S)-N-(3-((3-amino-5-(4-amino-2-oxa-8-azaspiro[4.5]decan-8-yl)pyrazin-2-yl)thio)-2-chlorophenyl)-2-hydroxy-4-oxo-6,7,8,9-tetrahydro-4H-pyrido[1,2-a]pyrimidine-3-carboxamide] | 46.5% |
| Cn1c(N2CCC3(CC2)CC(F)(F)C[C@H]3N)nc(N)c(Sc2ccnc(N)c2Cl)c1=O [compound 33, (R)-6-amino-2-(1-amino-3,3-difluoro-8-azaspiro[4.5]decan-8-yl)-5-((2-amino-3-chloropyridin-4-yl)thio)-3-methylpyrimidin-4(3H)-one] | 73.3% |
| CC[C@@H]1OCC2(CCN(c3nc(N)c(Sc4cccnc4C(F)(F)F)c(=O)n3C)CC2)[C@@H]1N [compound 31, 6-amino-2-((3S,4S)-4-amino-3-ethyl-2-oxa-8-azaspiro[4.5]decan-8-yl)-3-methyl-5-((2-(trifluoromethyl)pyridin-3-yl)thio)pyrimidin-4(3H)-one] | 36.4% |
| C[C@@H]1OCC2(CCN(c3cnc(Sc4ccnc(N)c4Cl)c(N)n3)CC2)[C@@H]1N [compound 16, (3S,4S)-8-(6-amino-5-((2-amino-3-chloropyridin-4-yl)thio)pyrazin-2-yl)-3-methyl-2-oxa-8-azaspiro[4.5]decan-4-amine] | 34.4% |
| Nc1nc(N2CCC3(CC2)C[C@H](O)C[C@H]3N)cnc1Sc1ccnc(Cl)c1Cl [compound 13, (2S,4R)-4-amino-8-(6-amino-5-((2,3-dichloropyridin-4-yl)thio)pyrazin-2-yl)-8-azaspiro[4.5]decan-2-ol] | 42.8% |
| C[C@@H]1OCC2(CCN(c3cnc(Sc4cccc(NC(=O)c5c(O)nc6n(c5=O)CCCC6)c4Cl)c(N)n3)CC2)[C@@H]1N [compound 45, N-(3-((3-amino-5-((3S,4S)-4-amino-3-methyl-2-oxa-8-azaspiro[4.5]decan-8-yl)pyrazin-2-yl)thio)-2-chlorophenyl)-2-hydroxy-4-oxo-6,7,8,9-tetrahydro-4H-pyrido[1,2-a]pyrimidine-3-carboxamide] | 12.1% |
| C[C@@H]1OCC2(CCN(c3cnc4c(-c5ccnc(Cl)c5Cl)n[nH]c4n3)CC2)[C@@H]1N [compound 39, (3S,4S)-8-(3-(2,3-dichloropyridin-4-yl)-1H-pyrazolo[3,4-b]pyrazin-6-yl)-3-methyl-2-oxa-8-azaspiro[4.5]decan-4-amine] | 97.9% |
| Cc1nc(N)ccc1-c1[nH]nc2nc(N3CCC4(CC3)CC(F)(F)C[C@H]4N)n(C)c(=O)c12 [compound 41, (R)-3-(6-amino-2-methylpyridin-3-yl)-6-(1-amino-3,3-difluoro-8-azaspiro[4.5]decan-8-yl)-5-methyl-2,5-dihydro-4H-pyrazolo[3,4-d]pyrimidin-4-one] | 25.3% |
| CC1(CN)CCN(c2nc3[nH]cc(-c4cccc(Cl)c4Cl)c3c(=O)[nH]2)CC1 [compound 38, 2-(4-(aminomethyl)-4-methylpiperidin-1-yl)-5-(2,3-dichlorophenyl)-3,7-dihydro-4H-pyrrolo[2,3-d]pyrimidin-4-one] | 83.9% |
| CC1(N)CCN(c2cnc(Sc3cccc(NC(=O)c4c(O)nc5ccccn5c4=O)c3Cl)c(N)n2)CC1 [Compound No. 44, N-(3-((3-amino-5-(4-amino-4-methylpiperidin-1-yl)pyrazin-2-yl)thio)-2-chlorophenyl)-2-hydroxy-4-oxo-4H-pyrido[1,2-a]pyrimidine-3-carboxamide] | 37% |
| CC1(CN)CCN(c2cnc(Sc3cccc(NC(=O)c4c(O)nc5n(c4=O)CCCC5)c3Cl)c(N)n2)CC1 [compound 48, N-(3-((3-amino-5-(4-(aminomethyl)-4-methylpiperidin-1-yl)pyrazin-2-yl)thio)-2-chlorophenyl)-2-hydroxy-4-oxo-6,7,8,9-tetrahydro-4H-pyrido[1,2-a]pyrimidine-3-carboxamide] | 52.3% |
| CC1(CN)CCN(c2cnc(Sc3cccc(NC(=O)c4c(O)nc5ccccn5c4=O)c3Cl)c(N)n2)CC1 [compound 50, N-(3-((3-amino-5-(4-(aminomethyl)-4-methylpiperidin-1-yl)pyrazin-2-yl)thio)-2-chlorophenyl)-2-hydroxy-4-oxo-4H-pyrido[1,2-a]pyrimidine-3-carboxamide] | 98.9% |
| C[C@H]1C[C@@H](N)C2(CCN(c3nc(N)c(-c4ccccc4)c(=O)n3C)CC2)C1 [compound 36, 6-amino-2-((1R,3R)-1-amino-3-methyl-8-azaspiro[4.5]decan-8-yl)-3-methyl-5-phenylpyrimidin-4(3H)-one] | 23.8% |
| C[C@H]1C[C@@H](N)C2(CCN(c3nc(N)c(Sc4ccncc4C(F)(F)F)c(=O)n3C)CC2)C1 [compound 28, 6-amino-2-((1R,3R)-1-amino-3-methyl-8-azaspiro[4.5]decan-8-yl)-3-methyl-5-((3-(trifluoromethyl)pyridin-4-yl)thio)pyrimidin-4(3H)-one] | 28.1% |
| Nc1nc(N2CCC3(CCC[C@H]3N)CC2)cnc1Sc1cccc(NC(=O)c2c(O)nc3n(c2=O)CCCC3)c1Cl [compound 47, (R)-N-(3-((3-amino-5-(1-amino-8-azaspiro[4.5]decan-8-yl)pyrazin-2-yl)thio)-2-chlorophenyl)-2-hydroxy-4-oxo-6,7,8,9-tetrahydro-4H-pyrido[1,2-a]pyrimidine-3-carboxamide] | 14.8% |
| C[C@H]1C[C@@H](N)C2(CCN(c3cnc(Sc4ccnc(N)c4Cl)c(N)n3)CC2)C1 [compound 12, (1R,3R)-8-(6-amino-5-((2-amino-3-chloropyridin-4-yl)thio)pyrazin-2-yl)-3-methyl-8-azaspiro[4.5]decan-1-amine] | 30.1% |
| C[C@H]1C[C@@H](N)C2(CCN(c3nc(N)c(-c4ccc(Cl)cc4)c(=O)n3C)CC2)C1 [compound 35, 6-amino-2-((1R,3R)-1-amino-3-methyl-8-azaspiro[4.5]decan-8-yl)-5-(4-chlorophenyl)-3-methylpyrimidin-4(3H)-one] | 32.2% |
| Nc1nc(N2CCC3(CC2)CC(F)(F)C[C@H]3N)cnc1Sc1cccc(NC(=O)c2c(O)nc3n(c2=O)CCCC3)c1Cl [compound 49, (R)-N-(3-((3-amino-5-(1-amino-3,3-difluoro-8-azaspiro[4.5]decan-8-yl)pyrazin-2-yl)thio)-2-chlorophenyl)-2-hydroxy-4-oxo-6,7,8,9-tetrahydro-4H-pyrido[1,2-a]pyrimidine-3-carboxamide] | 26.5% |
| C[C@@H]1OCC2(CCN(c3nc(N)c(Sc4cccc(Cl)c4Cl)c(=O)n3C)CC2)[C@@H]1N [compound 27, 6-amino-2-((3S,4S)-4-amino-3-methyl-2-oxa-8-azaspiro[4.5]decan-8-yl)-5-((2,3-dichlorophenyl)thio)-3-methylpyrimidin-4(3H)-one] | 37.8% |
| COc1nccc(-c2c[nH]c3nc(N4CCC5(CC4)CO[C@@H](C)[C@H]5N)n(C)c(=O)c23)c1Cl [compound 43, 2-((3S,4S)-4-amino-3-methyl-2-oxa-8-azaspiro[4.5]decan-8-yl)-5-(3-chloro-2-methoxypyridin-4-yl)-3-methyl-3,7-dihydro-4H-pyrrolo[2,3-d]pyrimidin-4-one] | 95.6% |
| C[C@@H]1OCC2(CCN(c3nc(N)c(Sc4ccncc4C(F)(F)F)c(=O)n3C)CC2)[C@@H]1N [compound 34, 6-amino-2-((3S,4S)-4-amino-3-methyl-2-oxa-8-azaspiro[4.5]decan-8-yl)-3-methyl-5-((3-(trifluoromethyl)pyridin-4-yl)thio)pyrimidin-4(3H)-one] | 43.6% |
| Nc1nc(N2CCC3(CC2)C[C@@H](O)C[C@H]3N)cnc1Sc1ccnc(Cl)c1Cl [compound 14, (2R,4R)-4-amino-8-(6-amino-5-((2,3-dichloropyridin-4-yl)thio)pyrazin-2-yl)-8-azaspiro[4.5]decan-2-ol] | 51.2% |
| Nc1nc(N2CCC3(CC2)COC[C@H]3N)cnc1Sc1ccnc(N)c1Cl [compound 11, (S)-8-(6-amino-5-((2-amino-3-chloropyridin-4-yl)thio)pyrazin-2-yl)-2-oxa-8-azaspiro[4.5]decan-4-amine] | 58.9% |
| COc1cccc(Sc2c(N)nc(N3CCC4(CC3)CO[C@@H](C)[C@H]4N)n(C)c2=O)c1Cl [compound 30, 6-amino-2-((3S,4S)-4-amino-3-methyl-2-oxa-8-azaspiro[4.5]decan-8-yl)-5-((2-chloro-3-methoxyphenyl)thio)-3-methylpyrimidin-4(3H)-one] | 39.4% |
| CN1C(=O)C(C(=O)Nc2cccc(Sc3ncc(N4CCC(C)(N)CC4)nc3N)c2Cl)=C(O)C1Cc1ccccc1 (centres unmarked) [compound 54, N-(3-((3-amino-5-(4-amino-4-methylpiperidin-1-yl)pyrazin-2-yl)thio)-2-chlorophenyl)-5-benzyl-4-hydroxy-1-methyl-2-oxo-2,5-dihydro-1H-pyrrole-3-carboxamide] | 132% |
| Nc1nc(N2CCC3(CCC[C@H]3N)CC2)cnc1Sc1ccnc(N)c1Cl [compound 6, (R)-8-(6-amino-5-((2-amino-3-chloropyridin-4-yl)thio)pyrazin-2-yl)-8-azaspiro[4.5]decan-1-amine] | 44.5% |
| NCC1(c2ccccc2)CCN(c2cnc(-c3cccc(Cl)c3Cl)c(N)n2)CC1 [compound 2, 6-(4-(aminomethyl)-4-phenylpiperidin-1-yl)-3-(2,3-dichlorophenyl)pyrazin-2-amine] | 67% |
| C[C@@H]1OCC2(CCN(c3nc(N)c(Sc4cccnc4C(F)(F)F)c(=O)n3C)CC2)[C@@H]1N [compound 25, 6-amino-2-((3S,4S)-4-amino-3-methyl-2-oxa-8-azaspiro[4.5]decan-8-yl)-3-methyl-5-((2-(trifluoromethyl)pyridin-3-yl)thio)pyrimidin-4(3H)-one] | 52.5% |
| C[C@H]1C[C@@H](N)C2(CCN(c3nc(N)c(-c4cccc(Cl)c4Cl)c(=O)n3C)CC2)C1 [compound 29, 6-amino-2-((1R,3R)-1-amino-3-methyl-8-azaspiro[4.5]decan-8-yl)-5-(2,3-dichlorophenyl)-3-methylpyrimidin-4(3H)-one] | 25.1% |
